# According to patent US10722498B2, “Acetazolamide ophthalmic solution” (INNOVATIVE NANO & MICRO TECHNOLOGIES PVT LTD (INM …, priority 2017, dated 2020):
# Key:
# [1] = tested on: New Zealand white rabbit eyes; test: Measurement of intraocular pressure in rabbit eyes (tonometry); assay type: in vivo; conditions: rabbits, oral acetazolamide 12.92 mg/kg
# Method: The inhibition of the ocular hypertension was determined by the following protocol: The experiments were performed in new New Zealand white rabbit eyes by using tonometry method. Rabbits were divided into groups; where each group consists of 4 animals. Group 1, Group 2, Group 3, Group 4 and Group 5 of Rabbits are administered with the predetermined concentrations of ophthalmic compositions of Example 1, 2, 3, 4 and 5 respectively. Group 6 of Rabbits are administered with oral acetazolamide 12.92 mg/kg. The intraocular pressure was measured at 0, 0.5, 1, 4, 8, 12 hrs. After 6 hours, one more administration of ophthalmic composition of Example 1 was instilled in Group 1 of Rabbits and the intraocular pressure was measured.
# The percentage change in the intraocular pressure is depicted in the following table 1.
# [2] = cited from earlier work
smiles,measurement,setting,value
"CC(=O)Nc1nnc(S(N)(=O)=O)s1 [Oral acetazolamide, acetazolamide]",percentage change in the intraocular pressure,"[1]; 0.5 hrs after administration, 4 per group, eye drops instilled",18.00%
same,percentage change in the intraocular pressure,"[1]; 1 hr after administration, eye drops instilled",14.00%
same,percentage change in the intraocular pressure,"[1]; 4 hrs after administration, eye drops instilled",14.00%
same,percentage change in the intraocular pressure,"[1]; 6 hrs after administration, eye drops instilled",14.00%
same,percentage change in the intraocular pressure,"[1]; 8 hrs after administration, Group 1 (Example 1) had a second instillation after 6 hours",6.00%
same,percentage change in the intraocular pressure,"[1]; 12 hrs after administration, Group 1 (Example 1) had a second instillation after 6 hours",6.00%
same,solubility in water,[2],very low solubility in water
